Data as given in PMC10301333, “The C-Terminus of Panusin, a Lobster β-Defensin, Is Crucial for Optimal Antimicrobial Activity and Serum Stability” (Pharmaceutics, 2023).
Converted amounts (≈) assume the structure as drawn. Read-outs that look alike come from different tables or passages of the source. Bridge positions count the residues as written; N and C are the ends. Peptide text beside a SMILES is read from it.

Key:
horse red blood cells = test: Hemolytic activity (hemoglobin release)
Procedure: Both peptides were tested for hemolytic activity on horse red blood cells (RBCs), as described earlier. Briefly, fresh RBCs in PBS (pH 7.4) were first centrifuged 3 × 1500× g for 5 min, then diluted 1:10 with PBS to yield an RBC concentration of ~5 × 10^8 cells/mL. RBCs were then incubated for 1 h at 37 °C with 2-fold serial dilutions of PaD or Ct_PaD covering a 0.24–250 μM concentration range. Next, 0.1% TritonX100 and PBS were used as positive and negative controls, respectively. After incubation, samples were centrifuged at 1500× g for 10 min at room temperature and the supernatant (60 μL) was transferred to a flat-bottomed 96-well polypropylene microplate (Greiner, Frickenhausen, Germany). Hemoglobin release was then measured as OD at 540 nm in a VICTOR3 microplate reader (Perkin Elmer, Waltham, MA, USA). Percent hemolysis was calculated as indicated below (Equation (1)).

MTT cytotoxicity assay = assay type: cell-based; conditions: human
Procedure: MRC-5 cells were cultured in Eagle’s minimum essential medium (MEMα), supplemented with 10% (v/v) fetal bovine serum (FBS) and a 1% penicillin (100 IU/mL)/streptomycin (100 μg/mL) solution, and maintained at 37 °C in a humidified atmosphere with 5% CO2. After cells were grown, they were seeded into 96-well plates at 3 × 10^4 cells/well and cultured overnight to adhere to the plate. Subsequently, adherent cells were incubated for 4 h under standard conditions (5% CO2, 37 °C) with 2-fold serial dilutions of each peptide in a 1.56–200 μM concentration range. Following incubation, the peptide-containing medium was replaced with MEM supplemented with FBS and 3-(4,5-dimethylthiazol-2-yl)-2,5 diphenyltetrazolium bromide (MTT) at 0.4 mg/mL, and the cells were further incubated for 120 min. Formazan crystals in live cells were detected after disruption with 200 μL of DMSO by OD measurement at 570 nm in a Tecan microplate reader. […] Data are the average of three independent replicates.

[1] = Analytical RP-HPLC retention time as measure of hydrophobic character; assay type: physicochemical; conditions: chromatographic, Luna C18 4.6 × 50 mm, 3 µm; 10 to 50 linear gradient of MeCN (0.036% TFA) into H2O (0.045% TFA) over 15 min, 1 mL/min, UV 220 nm; used as indicator of hydrophobic character
Procedure: Analytical RP-HPLC was performed on an LC-2010 instrument (Shimadzu, Kyoto, Japan) using a Luna C18 column (4.6 × 50 mm, 3 µm; Phenomenex, Torrance, CA, USA), eluted with linear gradients of solvent B (0.036% TFA in MeCN) into solvent A (0.045% TFA in H2O) over 15 min at a 1 mL/min flow rate, with UV detection at 220 nm.
The HPLC retention times of PaD and Ct_PaD reflect some differences in hydrophobic character. […] Such differences in hydrophobicity might influence both antimicrobial and cytotoxic activity, which were therefore assessed next.
Supplementary Materials: The C-terminus of Panusin, a Lobster β-defensin, Is Crucial for Optimal Antimicrobial
Activity and Serum Stability
Roberto Bello-Madruga, Javier Valle, M. Ángeles Jiménez, Marc Torrent, Vivian Montero-Alejoand David Andreu
1. Synthetic Peptide Characterization
Table S1. Peptide Analytical Data.
1 Theoretical Experimental HPLC Retention Purity
Peptide Mass (Da) Mass (Da)2 Time (min)3 (HPLC, %)4
1 All peptides are C-terminal carboxamides; 2 Determined by LC-MS, 3 Elution was carried out with a 10 to 50 linear gradient over 15 min; 4 Determined by analytical HPLC.
Figure S1. RP-HPLC elution profile of purified peptides. […]

Acinetobacter baumannii = conditions: for MBC: 24 h
Procedure: (§1) Antimicrobial activities of both PaD and Ct_PaD were determined in a modified microdilution assay as described previously for other β-defensins such as peptides. The assay was performed in sterile polypropylene 96-well plates that prevent peptide binding (Greiner, Frickenhausen, Germany). From a bacterial isolate, a single colony was seeded in Mueller Hinton Broth (MHB, Condalab, Torrejón de Ardoz, Spain) and allowed to grow at 37 °C in an incubator with orbital shaking at 250 rpm overnight. Subsequently, a new bacterial culture was seeded from the overnight culture and allowed to grow to an OD of 0.5 at 600 nm. The bacterial suspension was diluted to a final concentration of 5 × 10^5 CFU (colony formation unit)/mL in sterile 10 mM phosphate buffer (PB: 2.46 mM NaH2PO4, 7.5 mM Na2HPO4, pH 7.4), used as the working culture. Next, 50 μL of 2-fold serial dilutions of each peptide in PB were placed on the plates to provide a final 0.097–100 µM concentration range after which 50 μL of working culture was applied to each well. The plate was first incubated for 2 h at 37 °C, then 100 μL of MHB 2× was added to each well and was incubated at 37 °C overnight with shaking. The growth of bacteria was measured by the optical density at 600 nm in a microplate reader (Tecan, Männedorf, Switzerland). The minimum inhibitory concentration (MIC) was defined as the minimum peptide concentration in which the microorganism is unable to grow. The results are the average of three independent studies. […] MBC was defined for each peptide as the lowest concentration with no bacterial growth detected.

Enterococcus faecium = conditions: for MBC: 24 h
Procedure: as §1

Escherichia coli = conditions: for MBC: 24 h
Procedure: as §1

Micrococcus luteus = conditions: for MBC: 24 h
Procedure: as §1

Pseudomonas aeruginosa = conditions: for MBC: 24 h
Procedure: as §1

Staphylococcus aureus = conditions: for MBC: 24 h
Procedure: as §1

human erythrocytes = conditions: natural panusin; cited from earlier work
Description: Panusin, isolated from hemocytes of the spiny lobster Panulirus argus (PaD), is representative of those invertebrate peptides, which are related to mammalian β-defensins. PaD is comprised of 39 amino acid residues that fold into a well-described cysteine-stabilized αβ (CSαβ) motif, consisting of an α-helix and three antiparallel […]. These […] are strongly stabilized by three disulfide bonds. […] These properties mark it a ...

in vitro = conditions: human, human serum (50% v/v in water), t1/2 values, proteolysis in human serum, 37 °C, 24 h incubation
Procedure: Peptide samples (500 μL, 500 μM in H2O) were mixed and incubated with 500 μL of human serum (Sigma-Aldrich, St. Louis, MO, USA) for 24 h at 37 °C. Aliquots (120 μL) were taken at 0, 30, 120, 360, 720, and 1440 min and treated with 20 μL of trichloroacetic acid (15% (v/v) in H2O). The suspension was centrifuged for 30 min at 13,000 rpm, 4 °C, and the supernatant was analyzed by RP-HPLC as described above. The unaltered peptide was determined by RP-HPLC peak integration, expressed as the percent of the amount at t0, and data were fitted to a one-phase exponential decay model using GraphPad Prism 8.01 to estimate half-life time (t1/2). Results are the average of three independent runs.

## CC(C)C[C@@H]1NC(=O)[C@H](CCCNC(=N)N)NC(=O)[C@H](CC(N)=O)NC(=O)CNC(=O)[C@H](Cc2ccc(O)cc2)NC(=O)[C@@H]2CCCN2C(=O)[C@@H](NC(=O)[C@@H](N)Cc2ccc(O)cc2)CSSC[C@@H](C(=O)N[C@@H](CCCNC(=N)N)C(=O)N[C@@H](CCCNC(=N)N)C(=O)N[C@@H](CO)C(=O)N[C@@H](Cc2ccc(O)cc2)C(N)=O)NC(=O)[C@@H]2CSSC[C@H](NC(=O)[C@H](Cc3ccccc3)NC(=O)[C@H](Cc3ccc(O)cc3)NC(=O)[C@H](CC(N)=O)NC1=O)C(=O)N1CCC[C@H]1C(=O)N[C@@H](CC(C)C)C(=O)NCC(=O)N[C@@H](CCCNC(=N)N)C(=O)N[C@@H]([C@@H](C)O)C(=O)N2 [Ct_PaD] (H-YCPYGNRLNYFCPLGRTCCRRSY-NH2; disulfide 2-19, 12-18; N-terminus assumed)
Horse red blood cells; horse red blood cell lysis, tested up to 250 μM, hemoglobin release at 540 nm
  Hemolytic activity (result in words): absence of hemolytic activity
MTT cytotoxicity assay; MRC-5 cells, 4 h peptide incubation, 1.56–200 μM, MTT, OD 570 nm, average of three independent replicates, read-out: MRC-5 cytotoxicity (IC50)
  IC50 at 4 h: 175 ± 1.5 µM
[1]
  HPLC Retention Time: 6.65 min

## CC[C@H](C)[C@H](NC(=O)[C@H](CCCCN)NC(=O)[C@H](CCC(=O)O)NC(=O)[C@H](CCCCN)NC(=O)[C@H](CO)NC(=O)[C@H](CCCCN)NC(=O)[C@H](CCCNC(=N)N)NC(=O)[C@H](Cc1ccccc1)NC(=O)[C@H](Cc1ccccc1)NC(=O)[C@H](CC(=O)O)NC(=O)CNC(=O)[C@H](CC(C)C)NC(=O)[C@@H](N)CC(C)C)C(=O)NCC(=O)N[C@@H](CCCCN)C(=O)N[C@@H](CCC(=O)O)C(=O)N[C@@H](Cc1ccccc1)C(=O)N[C@@H](CCCCN)C(=O)N[C@@H](CCCNC(=N)N)C(=O)N[C@H](C(=O)N[C@H](C(=O)N[C@@H](CCC(N)=O)C(=O)N[C@@H](CCCNC(=N)N)C(=O)N[C@H](C(=O)N[C@@H](CCCCN)C(=O)N[C@@H](CC(=O)O)C(=O)N[C@@H](Cc1ccccc1)C(=O)N[C@@H](CC(C)C)C(=O)N[C@@H](CCCNC(=N)N)C(=O)N[C@@H](CC(N)=O)C(=O)N[C@@H](CC(C)C)C(=O)N[C@H](C(=O)N1CCC[C@H]1C(=O)N[C@@H](CCCNC(=N)N)C(=O)N[C@H](C(=O)N[C@@H](CCC(=O)O)C(=O)N[C@@H](CO)C(=O)O)[C@@H](C)O)C(C)C)[C@@H](C)CC)C(C)C)[C@@H](C)CC [LL-37, reference compound]
Acinetobacter baumannii; A. baumannii ATCC 15308, 10 mM phosphate buffer pH 7.4, 2 h at 37 °C, then MHB overnight, OD 600 nm, average of three independent studies
  MIC: 6.3 µM (≈ 28.3 µg/mL)
Acinetobacter baumannii; A. baumannii ATCC 15308, plated, 37 °C, lowest concentration with no bacterial growth
  MBC: 6.3 µM (≈ 28.3 µg/mL)
Enterococcus faecium; E. faecium ATCC 19434, 10 mM phosphate buffer pH 7.4, 2 h at 37 °C, then MHB overnight, OD 600 nm, average of three independent studies
  MIC: 1.6 µM (≈ 7.19 µg/mL)
Enterococcus faecium; E. faecium ATCC 19434, plated, 37 °C, lowest concentration with no bacterial growth
  MBC: 3.1 µM (≈ 13.9 µg/mL)
Escherichia coli; E. coli BW25113, 5 × 10^5 CFU/mL in 10 mM phosphate buffer pH 7.4, 2 h at 37 °C, then MHB overnight, OD 600 nm, average of three independent studies
  MIC: 1.6 µM (≈ 7.19 µg/mL)
Escherichia coli; E. coli BW25113, 50 μL of wells seeded into Petri plates, 37 °C, lowest concentration with no bacterial growth
  MBC: 3.1 µM (≈ 13.9 µg/mL)
Micrococcus luteus; M. luteus ATCC 15,307, 10 mM phosphate buffer pH 7.4, 2 h at 37 °C, then MHB overnight, OD 600 nm, average of three independent studies
  MIC: 1.6 µM (≈ 7.19 µg/mL)
Micrococcus luteus; M. luteus ATCC 15,307, plated, 37 °C, lowest concentration with no bacterial growth
  MBC: 3.1 µM (≈ 13.9 µg/mL)
Pseudomonas aeruginosa; P. aeruginosa ATCC 15692, 10 mM phosphate buffer pH 7.4, 2 h at 37 °C, then MHB overnight, OD 600 nm, average of three independent studies
  MIC: 1.6 µM (≈ 7.19 µg/mL)
Pseudomonas aeruginosa; P. aeruginosa ATCC 15692, plated, 37 °C, lowest concentration with no bacterial growth
  MBC: 1.6 µM (≈ 7.19 µg/mL)
Staphylococcus aureus; S. aureus ATCC 12600, 10 mM phosphate buffer pH 7.4, 2 h at 37 °C, then MHB overnight, OD 600 nm, average of three independent studies
  MIC: 25 µM (≈ 112 µg/mL)
Staphylococcus aureus; S. aureus ATCC 12600, plated, 37 °C, lowest concentration with no bacterial growth
  MBC: 25 µM (≈ 112 µg/mL)
Horse red blood cells; horse RBCs ~5 × 10^8 cells/mL in PBS pH 7.4, 1 h, 37 °C, 250 µM peptide, OD 540 nm, vs 0.1% TritonX100, average of three independent replicates
  Hemolysis % (250 µM peptide): 17.5 ± 0.3%

## CC(C)C[C@@H]1NC(=O)[C@H](CCCNC(=N)N)NC(=O)[C@H](CC(N)=O)NC(=O)CNC(=O)[C@H](Cc2ccc(O)cc2)NC(=O)[C@@H]2CCCN2C(=O)[C@@H]2CSSC[C@@H](C(=O)N[C@@H](CCCNC(=N)N)C(=O)N[C@@H](CCCNC(=N)N)C(=O)N[C@@H](CO)C(=O)N[C@@H](Cc3ccc(O)cc3)C(N)=O)NC(=O)[C@@H]3CSSC[C@H](NC(=O)[C@H](CC(=O)O)NC(=O)CNC(=O)[C@@H](NC(=O)[C@H](Cc4ccc(O)cc4)NC(=O)[C@@H](N)CO)C(C)C)C(=O)NCC(=O)N[C@@H](CO)C(=O)N[C@@H](CC(N)=O)C(=O)NCC(=O)NCC(=O)N[C@@H](CO)C(=O)N[C@@H](CSSC[C@H](NC(=O)[C@H](Cc4ccccc4)NC(=O)[C@H](Cc4ccc(O)cc4)NC(=O)[C@H](CC(N)=O)NC1=O)C(=O)N1CCC[C@H]1C(=O)N[C@@H](CC(C)C)C(=O)NCC(=O)N[C@@H](CCCNC(=N)N)C(=O)N[C@@H]([C@@H](C)O)C(=O)N3)C(=O)N[C@@H](C(C)C)C(=O)N[C@@H](CO)C(=O)N[C@@H](CO)C(=O)N[C@@H](Cc1ccc(O)cc1)C(=O)N2 [PaD] (H-SYVGDCGSNGGSCVSSYCPYGNRLNYFCPLGRTCCRRSY-NH2; disulfide 6-34, 13-28, 18-35)
Acinetobacter baumannii; 2 h, pH 7.4
  MIC: 25 µM (≈ 106 µg/mL)
Acinetobacter baumannii
  MBC: 25 µM (≈ 106 µg/mL)
Enterococcus faecium; 2 h, pH 7.4
  MIC: 25 µM (≈ 106 µg/mL)
Enterococcus faecium
  MBC: 25 µM (≈ 106 µg/mL)
Escherichia coli; 2 h, pH 7.4
  MIC: 12.5 µM (≈ 53.2 µg/mL)
Escherichia coli
  MBC: 12.5 µM (≈ 53.2 µg/mL)
Micrococcus luteus; 2 h, pH 7.4
  MIC: 12.5 µM (≈ 53.2 µg/mL)
Micrococcus luteus
  MBC: 12.5 µM (≈ 53.2 µg/mL)
Pseudomonas aeruginosa; 2 h, pH 7.4
  MIC: 25 µM (≈ 106 µg/mL)
Pseudomonas aeruginosa
  MBC: 25 µM (≈ 106 µg/mL)
Staphylococcus aureus; 2 h, pH 7.4
  MIC: 25 µM (≈ 106 µg/mL)
Staphylococcus aureus
  MBC: 25 µM (≈ 106 µg/mL)
Horse red blood cells; pH 7.4
  Hemolysis % (250 µM peptide): 0.6 ± 0.02%
MTT cytotoxicity assay
  IC50 at 4 h: 145 ± 1.7 µM
Human erythrocytes
  Hemolytic effect on human erythrocytes: no hemolytic effect
In vitro
  half-life at 250 µM: > 24 h
